According to PubChem BioAssay (NCI):
“And” between values parts separate entries of the source, which are not always exact repeats. Equal values may be shown once.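 These data come from cells grown in 96-well plates and exposed to compound for 48 hours at five concentrations. At the GI50, growth is halved. TGI: concentration producing complete growth inhibition.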

Experiments:
Assay in all cases: NCI tumour cell line growth inhibition, 48 h
A498 renal = tested on: A498 renal
KM12 colon = tested on: KM12 colon
DMS 114 small cell lung = tested on: DMS 114 small cell lung
HOP-18 NSCLC = tested on: HOP-18 NSCLC
M19-MEL melanoma = tested on: M19-MEL melanoma
DMS 273 small cell lung = tested on: DMS 273 small cell lung
DLD-1 colon = tested on: DLD-1 colon
KM20L2 colon = tested on: KM20L2 colon
SNB-78 CNS = tested on: SNB-78 CNS
LXFL 529 NSCLC = tested on: LXFL 529 NSCLC
SR leukemia = tested on: SR leukemia
XF 498 CNS = tested on: XF 498 CNS
BT-549 breast = tested on: BT-549 breast
RXF-631 renal = tested on: RXF-631 renal
P388/ADR leukemia = tested on: P388/ADR leukemia
SN12K1 renal = tested on: SN12K1 renal
P388 leukemia = tested on: P388 leukemia

Row | SMILES | TGI (A498 renal) [µM] | TGI (KM12 colon) | TGI (M19-MEL melanoma) [µM] | TGI (KM20L2 colon) [µM] | TGI (SNB-78 CNS) [µM] | TGI (SR leukemia) [µM] | TGI (BT-549 breast) | other results
1 | CC(C)N(C(C)C)P(OCCC#N)OC1CC(n2cnc3c(=O)[nH]cnc32)OC1COC(=O)NCCCCCCNC(=O)OC(C)(C)c1ccc(-c2ccccc2)cc1 (stereo not drawn) | > 100 | 35.5 µM | 42.2 | > 100 | > 100 |  |  | TGI (DMS 114 small cell lung): 41.6 µM; TGI (HOP-18 NSCLC): > 100 µM; TGI (DMS 273 small cell lung): 32.1 µM; TGI (DLD-1 colon): > 100 µM; TGI (LXFL 529 NSCLC): 32.5 µM
2 | CC(=O)C1(O)Cc2c(O)c3c(c(O)c2C(OC2CC(N)C(O)C(C)O2)C1)C(=O)c1ccccc1C3=O (stereo not drawn) | 0.0453 | 0.713 µM and 0.227 µM | 0.121 | 0.203 | 0.592 | 0.0813 | 0.652 µM and 1.2 µM | GI50 (KM12 colon): 0.0167 µM; TGI (HOP-18 NSCLC): 0.0869 µM; TGI (XF 498 CNS): 0.181 µM; GI50 (BT-549 breast): 0.0603 µM; TGI (DMS 273 small cell lung): < 0.0108 µM; TGI (DLD-1 colon): 0.498 µM; TGI (LXFL 529 NSCLC): 0.25 µM
3 | CCN(CC)CCNc1ccc2ncn3c4cc(=O)ccc4c(O)c1c23 | 14 | 22.1 µM | 16.5 | 16.4 | 25.4 | 9.75 |  | TGI (RXF-631 renal): 12.5 µM; TGI (DMS 114 small cell lung): 18.1 µM; TGI (XF 498 CNS): 12.8 µM; TGI (DMS 273 small cell lung): 13.2 µM; TGI (DLD-1 colon): 17 µM; TGI (LXFL 529 NSCLC): 20.5 µM
4 | c1ccc(CCn2cncn2)cc1 |  | > 100 µM | > 100 | > 100 | > 100 | > 100 |  | TGI (RXF-631 renal): > 100 µM; TGI (DMS 114 small cell lung): > 100 µM; TGI (DMS 273 small cell lung): > 100 µM; TGI (DLD-1 colon): > 100 µM; TGI (LXFL 529 NSCLC): > 100 µM
5 | O=C1c2cc([N+](=O)[O-])sc2C(=O)c2ccsc21 | 4.37 | 1.77 µM |  |  |  | < 0.0235 | 1.27 µM | 
6 | CC(=O)O[C@H]1CC[C@H]2[C@@H]3CCC(C(C)=O)[C@H](C(=O)O)[C@H]3CC[C@]12C (stereo partly drawn) | > 100 | > 100 µM |  |  |  | > 100 | > 100 µM | 
7 | NC(N)=NCC(N)C(=O)O (stereo not drawn) | > 100 | > 100 µM |  |  |  | > 100 | > 100 µM | 
8 | O=C1NC2(C=Cc3c(ccc4ccccc34)O2)Oc2ccccc21 (stereo not drawn) |  | 41.1 µM | > 100 | > 100 | 94.1 | 34.5 |  | TGI (DMS 114 small cell lung): 51 µM; TGI (XF 498 CNS): > 100 µM; TGI (DMS 273 small cell lung): 76.1 µM; TGI (LXFL 529 NSCLC): 56.4 µM
9 | CN(C)CCn1nc(N)c2nc3cc(C(F)(F)F)ccc3nc21 | > 100 | > 100 µM |  |  |  | > 100 | > 100 µM | 
10 | COC(=O)C1C2CC3C(OC(=O)C31)C2OC(=O)[C@](OC)(c1ccccc1)C(F)(F)F (stereo partly drawn) | > 100 | > 100 µM | > 100 | > 100 | > 100 | > 100 |  | TGI (RXF-631 renal): > 100 µM; TGI (DMS 114 small cell lung): > 100 µM; TGI (XF 498 CNS): > 100 µM; TGI (DMS 273 small cell lung): > 100 µM; TGI (DLD-1 colon): > 100 µM; TGI (LXFL 529 NSCLC): > 100 µM
11 | C=C1c2nc3ccccc3n2C=C(c2ccc(OC)cc2)N1c1ccc(OCCN2CCOCC2)cc1 | > 100 | > 100 µM |  |  |  | > 55.2 | > 100 µM | 
12 | Cc1sc2nc3n(c(=O)c2c1C)N=C(c1ccc([N+](=O)[O-])cc1)CS3 | > 100 | > 100 µM |  |  |  | > 100 | > 100 µM | 
13 | CC(=O)n1ccc2c(Cl)ncnc21 | > 100 | > 100 µM | > 100 | > 100 | > 100 | > 100 |  | TGI (RXF-631 renal): > 100 µM; TGI (DMS 114 small cell lung): > 100 µM; TGI (HOP-18 NSCLC): > 100 µM; TGI (DMS 273 small cell lung): > 100 µM; TGI (DLD-1 colon): > 100 µM; TGI (LXFL 529 NSCLC): > 100 µM
14 | COC[C@@H](Cc1ccc(OC)c(OC)c1)[C@@H](COC)Cc1ccc(OC)c(OC)c1 | > 100 | > 100 µM | > 100 | > 100 | > 100 | > 100 |  | TGI (DMS 114 small cell lung): > 100 µM; TGI (HOP-18 NSCLC): > 100 µM; TGI (XF 498 CNS): > 100 µM; TGI (DMS 273 small cell lung): > 100 µM; TGI (DLD-1 colon): > 100 µM; TGI (LXFL 529 NSCLC): > 100 µM
15 | CCOP(=O)(OCC)C(Nc1ccc(F)cc1)c1ccccc1 (stereo not drawn) | > 100 | > 100 µM |  |  |  | > 100 | > 100 µM | 
16 | O=C1C[C@H](c2ccc(O)c(O)c2)Oc2cc(O)cc(O)c21 | > 100 | > 100 µM | > 100 | > 100 | > 100 | > 100 |  | TGI (RXF-631 renal): > 100 µM; TGI (DMS 114 small cell lung): > 100 µM; TGI (HOP-18 NSCLC): > 100 µM; TGI (DMS 273 small cell lung): > 100 µM; TGI (DLD-1 colon): > 100 µM; TGI (LXFL 529 NSCLC): > 100 µM
17 | COc1cccc(-c2cc(=O)c3cc(Cl)cnc3[nH]2)c1 | > 100 | 44.2 µM |  |  |  | 20.4 | > 100 µM | 
18 | C=CCC(CNC(=O)OCc1ccccc1)OC(=O)OCc1ccccc1 (stereo not drawn) | > 100 | > 100 µM |  |  |  | 62 | > 100 µM | 
19 | N=C(c1cccs1)C1(N2CCCCC2)CCCCC1 | 34 | 34.6 µM |  |  |  | 37.1 | 41.9 µM | 
20 | Cc1nc2c(=O)[nH]c3ccc(Cl)cc3c2o1 | > 100 | > 100 µM |  |  |  | > 100 | > 100 µM | 

Row | SMILES | TGI (A498 renal) [µM] | TGI (KM12 colon) | TGI (M19-MEL melanoma) [µM] | TGI (KM20L2 colon) [µM] | TGI (SNB-78 CNS) [µM] | TGI (SR leukemia) [µM] | TGI (BT-549 breast) | other results
21 | CC1(C)CC[C@]2(C(=O)O)[C@H](O)C[C@]3(C)C(=CC[C@@H]4[C@@]5(C)CC[C@H](OC6OC(C(=O)O)C(O)C(O)C6O)C(C)(C)[C@@H]5CC[C@]43C)[C@@H]2C1 (stereo partly drawn) | 37.4 | > 100 µM |  |  |  | 46.7 | 34.2 µM | 
22 | CC1(C)C2CCC(N)(C2)C1O (stereo not drawn) | > 100 | > 100 µM |  |  |  | > 100 | > 100 µM | 
23 | CN(C)c1ccc(/C=c2/c3cc([N+](=O)[O-])ccc3n3c2cc(-c2ccccc2)[n+]3C)cc1 | 7.94 | 2.59 µM |  |  |  | 3.02 | 13 µM | 
24 | COC(=O)[C@H](CCSC)NC(=O)c1ccc(CNC(=O)/C(C)=C/c2ccccc2)cc1 | > 100 | > 100 µM |  |  |  | > 100 | 60.9 µM | 
25 | CCCC1(N)CC(OC)OC(C)C1O (stereo not drawn) | > 100 | > 100 µM |  |  |  | > 100 | > 100 µM | 
26 | C=CCC(SC)C1=C(C)C(=O)c2ccccc21 (stereo not drawn) | > 10 | > 10 µM |  |  |  | > 10 | > 10 µM | 
27 | COc1ccc(C[C@@H]2OC3(C=CC(=O)C=C3)O[C@H]2Cc2ccc(OC)cc2)cc1 | 14.8 | 5.04 µM |  |  |  | 1.84 | 0.505 µM | 
28 | CN(CCO)/N=N/c1[nH]ncc1C(N)=O | > 100 | > 100 µM | > 100 | > 100 | > 100 |  |  | TGI (P388/ADR leukemia): > 100 µM; TGI (SN12K1 renal): > 100 µM; TGI (DMS 114 small cell lung): > 100 µM; TGI (HOP-18 NSCLC): > 100 µM; TGI (XF 498 CNS): > 100 µM; TGI (DMS 273 small cell lung): > 100 µM; TGI (DLD-1 colon): > 100 µM; TGI (P388 leukemia): > 100 µM
29 | COc1cc(C=O)cc(C=Nc2ccc(S(N)(=O)=O)cc2)c1O | 48.2 | > 100 µM |  |  |  | 42.1 | > 100 µM | 
30 | CC(C)c1cccc(C(C)C)c1OS(=O)(=O)NC(=O)OC(C(F)(F)F)C(F)(F)F | > 100 | > 100 µM |  |  |  | > 100 | > 100 µM | 
31 | COc1ccc(N2C(=O)C3CC4=CC(=O)C[C@H]4[C@H]32)cc1 (stereo partly drawn) | > 100 | > 100 µM |  |  |  | > 100 | > 100 µM | 
32 | c1ccc(C2[C@@H]3CCCc4ccccc4C3=NN2c2ccccc2)cc1 (stereo partly drawn) | > 100 | > 100 µM | > 100 | > 100 | > 100 | > 100 |  | TGI (DMS 114 small cell lung): > 100 µM; TGI (XF 498 CNS): > 100 µM; TGI (DLD-1 colon): > 100 µM; TGI (LXFL 529 NSCLC): > 100 µM
33 | CC(=O)OCC1OC(N2C(S)=C(C#N)C(c3ccco3)C(C(C)=O)=C2c2ccccc2)C(OC(C)=O)C(OC(C)=O)C1OC(C)=O (stereo not drawn) | > 100 | > 100 µM |  |  |  | > 100 | > 100 µM | 
34 | C=CC(Br)(CBr)CCC(Br)C(C)C (stereo not drawn) | 32.8 | 4.83 µM |  |  |  | 3.99 | 11.5 µM | 
35 | OC(CN1CCCCC1)c1ccc(/C=C/c2ccc(Cl)cc2)cc1 (stereo not drawn) | > 100 | 40.3 µM |  |  |  | > 100 | > 100 µM | 
36 | CCCCCCCCCCCCCCCCP(=O)([O-])OCC[N+](C)(C)C | 29.1 | 9.33 µM |  |  |  | 29.4 | 22.6 µM | 
37 | CCCCNC(=S)Nc1nc(C(=O)NNC(=O)c2ccccc2)cs1 | 79.3 | 36.9 µM |  |  |  | > 100 | 41.4 µM | 
38 | CC1CC[C@@]2(OC1)OC1C[C@H]3[C@@H]4CCC5CC(O)CC[C@]5(C)[C@H]4C/C(=N\N(C)C)[C@]3(C)C1[C@@H]2C (stereo partly drawn) | 48.6 | 85.2 µM |  |  |  | 60.6 | 83.5 µM | 
39 | Nc1ccc(-c2nc3ccccc3s2)cc1Br | > 32.5 | > 100 µM |  |  |  | > 100 | > 100 µM | 
40 | COc1ccc(C2C(Cl)C(=O)N2NC(=O)Cc2ccccc2)cc1OC (stereo not drawn) |  | > 100 µM | > 100 | > 100 | > 100 | > 100 |  | TGI (DMS 114 small cell lung): > 100 µM; TGI (HOP-18 NSCLC): > 100 µM; TGI (XF 498 CNS): > 100 µM; TGI (DMS 273 small cell lung): > 100 µM; TGI (DLD-1 colon): > 100 µM
